For 43 compounds, IC50 and IC90 results are on record in ChEMBL document CHEMBL4483862, “Open-source discovery of chemical leads for next-generation chemoprotective antimalarials” (2018).

The assay deals with Plasmodium berghei. Description: Luciferase/luciferin-expressing antifolate-resistant parasites were used to infect a culture of HepG2 cells that were pre-incubated with compounds. Infected hepatocytes emit light due to the luciferase reaction. Assay results are presented as the percent inhibition of light emission compared to control. […]. Format: functional. Conditions: sporozoite; for IC90: read-out: LUCIFERASE INFECTION ASSAY - IC90.

The mark [1] stands for this setting: read-out: LUCIFERASE INFECTION ASSAY - IC50.

The term IC50 denotes the midpoint of a concentration-inhibition curve. Broadly, the IC90 is the concentration needed for an effect of 90%. As for `N#C/C(=N\Nc1cc(C(F)(F)F)cc(C(F)(F)F)c1)C(=O)c1ccco1`, the IC90 is 8.44 µM. Moreover, where the note is “FFLUC_HILL_SLOPE 13.1, FFLUC_R_SQUARED 0.556, HEPG2TOX_HILL_SLOPE 1.19, HEPG2TOX_R_SQUARED 0.748, PBLUC_HILL_SLOPE 4.82, PBLUC_R_SQUARED 0.319, read-out: LUCIFERASE INFECTION ASSAY - IC50”, the concentration for half-maximal inhibition (IC50) was found to be 5.35 µM.
In the case of `CCOc1cc2cc(C(=O)c3cc(C)ccc3O)cnc2cc1OC`, the IC90 stood at 9.38 µM. The IC50 (HEPG2TOX_HILL_SLOPE 3.65, HEPG2TOX_R_SQUARED 0.956, PBLUC_HILL_SLOPE 5.3, PBLUC_R_SQUARED 0.515, read-out: LUCIFERASE INFECTION ASSAY - IC50) came out at 6.19 µM.
In the case of `Cc1nn(-c2ccc(F)cc2)c2ncc(C(=O)Nc3nc(C4CC4)cs3)cc12`, the IC90 amounted to 4.45 µM. Also, the IC50 (PBLUC_HILL_SLOPE 2.65, PBLUC_R_SQUARED 0.58, read-out: LUCIFERASE INFECTION ASSAY - IC50) was determined as 1.94 µM.
Turning to `COc1ccc(C(=O)c2sc(Nc3ccccc3C)c(C(=O)Nc3ccccc3C)c2N)cc1`, the IC90 was > 10 µM. For the same compound, under setting [1], the IC50 was 5.95 µM.
For `Cn1ccnc1Sc1ncnc2sccc12`, the IC90 was 3.92 µM. Further, where the note is “PBLUC_HILL_SLOPE 5.04, PBLUC_R_SQUARED 0.521, read-out: LUCIFERASE INFECTION ASSAY - IC50”, the IC50 worked out at 2.53 µM.
Take `CCc1nn2c(=O)cc(CSc3nnc(-c4cc(C)cc(C)c4)o3)nc2s1`: the IC90 is > 10 µM. The IC50 under setting [1] was > 10 µM.
As for `COc1cc(Nc2ncc3c(n2)CCN(C(=O)Nc2ccc(C(C)C)cc2)C3)cc(OC)c1OC`, the IC90 amounted to 6.4 µM. Further, the IC50 (HEPG2TOX_HILL_SLOPE 2.3, HEPG2TOX_R_SQUARED 0.688, PBLUC_HILL_SLOPE 0.8, PBLUC_R_SQUARED 0.723, read-out: LUCIFERASE INFECTION ASSAY - IC50) was determined as 0.411 µM.
Regarding `CCN(CC)CCn1c(NC(=O)c2cc(C(C)=O)c[nH]2)nc2ccccc21`, the IC90 was > 10 µM. For the same compound, the IC50 under setting [1] was found to be 1.82 µM.
For `CN(CC(=O)NC1CC1)C(=O)CNc1ccccc1Oc1ccccc1`, the IC90 amounted to 4.68 µM. Also, under “PBLUC_HILL_SLOPE 1.7, PBLUC_R_SQUARED 0.39, read-out: LUCIFERASE INFECTION ASSAY - IC50”, the IC50 came to 1.29 µM.
For the compound `Cc1nn2c(nc(Sc3nnnn3C(C)C)c3ccccc32)c1Cl`, the IC90 is > 10 µM. Moreover, where the note is “PBLUC_HILL_SLOPE 6.07, PBLUC_R_SQUARED 0.112, read-out: LUCIFERASE INFECTION ASSAY - IC50”, the IC50 came to 8.31 µM.
In the case of `CC(=O)Nc1ccc(CC#N)cc1`, the IC90 is > 18.9 µM. Further, the IC50 under setting [1] is > 18.9 µM.
`CSc1nc2ccc(NC(=O)c3[nH]c4c(c3C)C(=O)CCC4)cc2s1`: the 90% effect concentration (IC90) was > 10 µM. In addition, the half-maximal inhibitory concentration (IC50) under setting [1] is > 10 µM.
`O=C(CSc1ccc(C(F)(F)F)cn1)Nc1cc(C(F)(F)F)cc(C(F)(F)F)c1`: the IC90 is > 7.36 µM. The IC50 under setting [1] was > 7.36 µM.
Take `COc1cccc(-c2nc(CSc3nc4ccccc4c(=O)n3C)cs2)c1`: the IC90 was determined as 3.7 µM. For the same compound, the IC50 (FFLUC_HILL_SLOPE 18, FFLUC_R_SQUARED 0.516, HEPG2TOX_HILL_SLOPE 5.55, HEPG2TOX_R_SQUARED 0.861, PBLUC_HILL_SLOPE 17.5, PBLUC_R_SQUARED 0.299, read-out: LUCIFERASE INFECTION ASSAY - IC50) amounted to 3.27 µM.
For `CCOc1ccccc1N1CCN(CC(=O)Nc2cc(C)ccc2C)CC1`, the IC90 was > 10 µM. The IC50 under setting [1] was > 10 µM.
In the case of `CCc1cccc2c(C(=O)COC(=O)/C(C#N)=C/c3ccc(OC)cc3)c[nH]c12`, the IC90 was > 10 µM. Further, the half-inhibitory concentration (IC50) (HEPG2TOX_HILL_SLOPE 1.4, HEPG2TOX_R_SQUARED 0.562, read-out: LUCIFERASE INFECTION ASSAY - IC50) is > 10 µM.
Take `CCC(C)NC(=O)c1c(NC(=O)c2ccc(C)cc2)nc2ccc(C)cn12` (stereo unspecified): the IC90 came to 7.69 µM. Besides, the IC50 (PBLUC_HILL_SLOPE 5.31, PBLUC_R_SQUARED 0.131, read-out: LUCIFERASE INFECTION ASSAY - IC50) came out at 5.08 µM.
Turning to `COc1cc(OC)cc(-c2cc3c(Nc4ccc(OC)c(OC)c4)nccc3[nH]2)c1`, the IC90 is 6.83 µM. Further, the IC50 (HEPG2TOX_HILL_SLOPE 3.11, HEPG2TOX_R_SQUARED 0.652, PBLUC_HILL_SLOPE 1.69, PBLUC_R_SQUARED 0.756, read-out: LUCIFERASE INFECTION ASSAY - IC50) stood at 1.86 µM.
On to `Cc1ccc(Sc2ccc(/C=c3\s/c(=C\C(=O)c4ccc(Cl)cc4)[nH]c3=O)cc2[N+](=O)[O-])cc1`, for which the IC90 is > 10 µM. The IC50 under setting [1] is > 10 µM.
Regarding `c1ccc2c(Nc3nc(C4CC4)cs3)ncnc2c1`, the IC90 was > 10 µM. The IC50 under setting [1] was > 10 µM.
On to `CCc1ccc(C(=O)Nc2nc3ccc(C)cn3c2C(=O)NC(C)CC)cc1` (stereo unspecified), for which the IC90 was found to be 3.2 µM. Besides, the IC50 (HEPG2TOX_HILL_SLOPE 7.71, HEPG2TOX_R_SQUARED 0.568, PBLUC_HILL_SLOPE 11.7, PBLUC_R_SQUARED 0.544, read-out: LUCIFERASE INFECTION ASSAY - IC50) turned out to be 2.65 µM.
Regarding `OC(CN1CCN(CC(O)Cn2c3ccccc3c3ccccc32)CC1)Cn1c2ccccc2c2ccccc21` (stereo unspecified), the IC90 is > 6.2 µM. Under “PBLUC_HILL_SLOPE 2.73, PBLUC_R_SQUARED 0.624, read-out: LUCIFERASE INFECTION ASSAY - IC50”, the IC50 is 3.03 µM.
Turning to `Cc1ccc(S(=O)(=O)Nc2ccc(Nc3nccn4c(-c5ccc(OC(F)(F)F)cc5)cnc34)cc2)cc1`, the IC90 is 3.49 µM. Moreover, the IC50 (PBLUC_HILL_SLOPE 1.58, PBLUC_R_SQUARED 0.687, read-out: LUCIFERASE INFECTION ASSAY - IC50) turned out to be 0.867 µM.
Regarding `CSc1sc(C(=O)Nc2ccc(F)c(Cl)c2)c(-c2ccc(Cl)cc2)c1C#N`, the IC90 was > 7.55 µM. In addition, the IC50 (FFLUC_HILL_SLOPE 1.91, FFLUC_R_SQUARED 0.467, read-out: LUCIFERASE INFECTION ASSAY - IC50) is > 7.55 µM.
`Cc1nn(Cc2ccc(C(=O)NC3CC3)cc2)c(C)c1[N+](=O)[O-]`: the IC90 is > 10 µM. Besides, under “PBLUC_HILL_SLOPE 1.06, PBLUC_R_SQUARED 0.0833, read-out: LUCIFERASE INFECTION ASSAY - IC50”, the IC50 is > 10 µM.
For `CCOC(=O)/C(=N\Nc1cccc(C(F)(F)F)c1)NC(C)c1ccccc1` (stereo unspecified), the IC90 is > 10 µM. Moreover, the half-inhibitory concentration (IC50) (PBLUC_HILL_SLOPE 1.36, PBLUC_R_SQUARED 0.117, read-out: LUCIFERASE INFECTION ASSAY - IC50) was > 10 µM.
Take `CCSC1=N/C(=C\c2cc(C(C)(C)C)c(O)c(C(C)(C)C)c2)C(=O)S1`: the IC90 is > 8.74 µM. For the same compound, the half-maximal inhibitory concentration (IC50) (FFLUC_HILL_SLOPE 2.27, FFLUC_R_SQUARED 0.423, read-out: LUCIFERASE INFECTION ASSAY - IC50) is > 8.74 µM.
In the case of `CCCc1cc(=O)nc(SCC(=O)NC(=O)c2ccc(C(C)(C)C)cc2)[nH]1`, the IC90 was > 10 µM. Moreover, the IC50 under setting [1] is > 10 µM.
As for `O=C(c1csc2c1CCCC2)N1CCc2c(c(C(=O)N3CCCC3)nn2Cc2ccncc2)C1`, the IC90 was > 6.94 µM. Further, the IC50 under setting [1] is > 6.94 µM.
Turning to `O=C(Nc1nc(-c2ccco2)c(-c2ccco2)s1)c1cnc(Cl)c(Cl)c1`, the IC90 is > 10 µM. For the same compound, under setting [1], the 50% inhibitory concentration (IC50) is > 10 µM.
In the case of `CCN(CC)S(=O)(=O)c1ccc(/C=C/C(=O)N2CC=C(c3ccccc3)CC2)cc1`, the IC90 was > 10 µM. Under setting [1], the IC50 is > 10 µM.
As for `CCN1CCN(c2ccc(NC(=O)CSc3nc4ccccc4s3)c(C)c2)CC1`, the IC90 is > 10 µM. Moreover, the IC50 under setting [1] is > 10 µM.
With `N#Cc1c(SCc2ccc(Cl)cc2)nc2c(c1-c1cccs1)CCCC2`, the IC90 was > 8.31 µM. Under “FFLUC_HILL_SLOPE 2.42, FFLUC_R_SQUARED 0.441, PBLUC_HILL_SLOPE 1.78, PBLUC_R_SQUARED 0.144, read-out: LUCIFERASE INFECTION ASSAY - IC50”, the IC50 was found to be 7.61 µM.
Turning to `O=S(=O)(Nc1nn(Cc2ccc(C(F)(F)F)cc2)c2ccccc12)c1cccc2nsnc12`, the 90% effect concentration (IC90) was > 6.74 µM. Moreover, the half-inhibitory concentration (IC50) under setting [1] is > 6.74 µM.
`CN(Cc1ccccc1NC(=O)/C=C/c1cnn(-c2ccccc2)c1)C1CCCCC1`: the IC90 is > 10 µM. The IC50 (PBLUC_HILL_SLOPE 13.5, PBLUC_R_SQUARED 0.731, read-out: LUCIFERASE INFECTION ASSAY - IC50) stood at 8.68 µM.
As to `Cn1ccc2cc(-c3cn4c(-c5ccc6ncccc6c5)cnc4cn3)ccc21`, the IC90 is 3.52 µM. In addition, the half-maximal inhibitory concentration (IC50) under setting [1] is 1.36 µM.
With `COc1ccc(CNC(=O)c2ccc(C3(CNc4cccc(OC)c4)CC3)cc2)cc1`, the IC90 is > 10 µM. For the same compound, the IC50 under setting [1] is > 10 µM.
In the case of `Cn1nc(-c2ccc(/C=C(\C#N)S(C)(=O)=O)s2)cc1C(F)(F)F`, the IC90 was > 9.13 µM. For the same compound, the 50% inhibitory concentration (IC50) under setting [1] was > 9.13 µM.
As for `CN(C)C(CNC(=O)c1cc(C2CC2)nn1-c1ccccc1)Cc1ccccc1` (stereo unspecified), the concentration for an effect of 90% (IC90) is > 10 µM. For the same compound, under setting [1], the IC50 was > 10 µM.
Regarding `O=C1CC(c2cccc(Cl)c2Cl)c2c([nH]c(-c3ccccc3)nc2=O)N1` (stereo unspecified), the IC90 is > 8.54 µM. Under setting [1], the IC50 was > 8.54 µM.
Consider `COc1ccc2cc(C(=O)NNC(=O)c3ccccn3)c(C)nc2c1`, for which the IC90 is > 10 µM. Also, the IC50 under setting [1] stood at 8.4 µM.
Take `O=[N+]([O-])c1ccsc1Oc1ccc(Cl)cc1Cl`: the IC90 was > 11.4 µM. Under setting [1], the IC50 was > 11.4 µM.
For the compound `CCSc1ncc(-c2nnnn2-c2ccccc2)c(-c2ccccc2)n1`, the IC90 was > 9.16 µM. In addition, where the note is “FFLUC_HILL_SLOPE 12.6, FFLUC_R_SQUARED 0.17, read-out: LUCIFERASE INFECTION ASSAY - IC50”, the IC50 was > 9.16 µM.
